Test results taken from publication PMC9223267, “Serine hydroxymethyltransferase as a potential target of antibacterial agents acting synergistically with one-carbon metabolism-related inhibitors” (Communications Biology, 2022).
Read-outs that look alike come from different tables or passages of the source.

Columns and labels:
E. faecium [1] = test: Antibacterial assay with an excess concentration of biomolecules (Ser, Gly, inosine, dT, FA); assay type: cell-based, Enterococcus faecium (JCM5804); details: Enterococcus faecium, JCM5804, E. faecium JCM5804
Procedure: (§1) E. faecium and E. faecalis were diluted to turbidity equivalents that matched 1.0 McFarland (McF) standard in distilled water (S. aureus and E. coli were also diluted to 0.5 McF), and additionally diluted 1:200 in Mueller–Hinton (MH) broth. The designated concentrations of the tested compounds were prepared by ten-fold serial dilutions directly in 96-well microtiter plates (IWAKI, Shizuoka, Japan), as previously described. […] The other compounds were serially diluted from 20 μM downwards (final concentration, 10 μM). […] Positive control wells included bacteria without any compound, and the negative control wells only contained MH broth. […] The optical density at 600 nm (OD600) was measured using a GloMax microtiter plate reader (Promega, WI, USA), and the EC50 values of each test compound and standard error were calculated by Microsoft Excel function, AVERAGE and STDEV/SQRT.
The ratio of the control EC50 (no competitors added) to the experimental EC50 (competitors added) was calculated for each test substance.

E. coli = test: Antibacterial activity evaluation (turbidity, OD600); assay type: cell-based, Escherichia coli (ATCC25922); details: Escherichia coli, E. coli ATCC25922
Procedure: as §1

E. faecalis = test: as above; assay type: cell-based, Enterococcus faecalis (JCM7783); details: Enterococcus faecalis, E. faecalis JCM7783
Procedure: as §1

E. faecium [2] = test: as above; assay type: cell-based, Enterococcus faecium (JCM5804); details: Enterococcus faecium
Procedure: as §1

S. aureus = test: as above; assay type: cell-based, Staphylococcus aureus (ATCC29213); details: Staphylococcus aureus, S. aureus ATCC29213
Procedure: as §1

efmSHMT [3] = molecular target: efmSHMT (Enterococcus faecium, UniProt I3U4H4, M1V); test: biochemical; assay type: binding; details: 5 μM efmSHMT, 10 mM Gly and 100 μM Ser
Procedure: After adding Me-THF, the efmSHMT solution was incubated for 30 min at room temperature. The optical density at 500 and 600 nm (OD500 and OD600) were then measured using a nanodrop spectrophotometer[24],[25]. OD600 was used as the background. After detection, each concentration of inhibitor was added to the efmSHMT solution and incubated for 30 min at room temperature. OD500 and OD600 were measured. The relative OD500 intensity was calculated as relative OD500 = (OD500 – OD600)/(MAXOD500 – OD600), where MAXOD500 is the average OD500 value in the presence of 1000, 2000 and 4000 μM Me-THF without inhibitors. […] Here, IC50 is the concentration of inhibitor added to the efmSHMT solution and [Me-THF] is the EC50 in the presence of the inhibitor concentration. [EC50 without inhibitor] is the EC50 of Me-THF in the absence of the inhibitor.

efmSHMT [4] = assay type: binding, Enterococcus faecium; details: DSF; final drug concentration 50 μM
Procedure: Protein samples were prepared as 20 μL aliquots containing 0.1 mg/mL protein (efmSHMT/ecSHMT), 1 μL of the ligand in DMSO (final drug concentration, 50 μM) and 2% or 4% SYPRO Orange (Invitrogen, MA, USA). […] Melting points were evaluated as the half-point of the maximum intensity of each curve.

[5] = 1 mM Inosine, read-out: pEC50 ± S.E. (converted)
[6] = 1 mM deoxythymidine, read-out: EC50
[7] = 1 mM deoxythymidine, read-out: pEC50 ± S.E. (converted)
[8] = 10 mM Glycine, read-out: pEC50 ± S.E. (converted)
[9] = 100 mM Serine, read-out: pEC50 ± S.E. (converted)
[10] = 0.1 M folate, read-out: pEC50 ± S.E. (converted)
[11] = read-out: pEC50 ± S.E. (converted)
[12] = E. faecium JCM5804, read-out: EC50
[13] = E. faecium JCM5804, read-out: pEC50 ± S.E. (converted)

Chain of efmSHMT (Enterococcus faecium, UniProt I3U4H4, M1V) (I3U4H4 whole entry M1V): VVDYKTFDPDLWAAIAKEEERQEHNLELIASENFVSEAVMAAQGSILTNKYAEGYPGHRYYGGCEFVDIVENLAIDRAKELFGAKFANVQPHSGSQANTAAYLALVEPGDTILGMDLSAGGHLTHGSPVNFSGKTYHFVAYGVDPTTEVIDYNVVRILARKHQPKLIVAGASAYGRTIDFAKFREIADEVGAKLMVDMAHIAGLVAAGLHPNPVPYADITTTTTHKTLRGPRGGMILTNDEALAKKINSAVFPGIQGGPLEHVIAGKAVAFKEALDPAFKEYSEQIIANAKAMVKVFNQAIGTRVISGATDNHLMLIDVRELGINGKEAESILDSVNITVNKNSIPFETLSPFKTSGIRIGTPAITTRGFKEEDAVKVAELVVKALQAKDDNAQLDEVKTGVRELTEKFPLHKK

EC50 (E. faecium [1]; 1 mM Inosine, read-out: EC50) [nM] | EC50 (E. faecium [1]; [5]) [nM] | EC50 (E. faecium [1]; [6]) [nM] | EC50 (E. faecium [1]; [7]) [nM] | EC50 (E. faecium [1]; 10 mM Glycine, read-out: EC50) [nM] | EC50 (E. faecium [1]; [8]) [nM] | EC50 (E. faecium [1]; 100 mM Serine, read-out: EC50) [nM] | EC50 (E. faecium [1]; [9]) [nM] | EC50 (E. faecium [1]; 0.1 M folate, read-out: EC50) [nM] | EC50 (E. faecium [1]; [10]) [nM] | EC50 (E. coli; read-out: EC50) [nM] | EC50 (E. coli; [11]) [nM] | EC50 (E. faecalis; read-out: EC50) [nM] | EC50 (E. faecalis; [11]) [nM] | EC50 (E. faecium [2]; [12]) [nM] | EC50 (E. faecium [2]; [13]) [nM] | EC50 (S. aureus; read-out: EC50) [nM] | EC50 (S. aureus; [11]) [nM] | SMILES | further results
720 | 794 | 21000 | 20000 | 65 | 79.4 | 98 | 100 | 270 | 251 | 10000 | 10000 | 380 | 398 | 73 | 79.4 | 30 | 31.6 | O=c1[nH]c(=O)n([C@@H]2O[C@H](CO)[C@@H](O)[C@H]2O)cc1F [5-FUrd, 5-fluorouridine] | –
24 | 25.1 | > 100000 | > 100000 | 6.4 | 6.31 | 32 | 31.6 | 190 | 200 | 10000 | 10000 | 310 | 316 | 29 | 31.6 | 8.9 | 7.94 | O=c1[nH]c(=O)n([C@H]2C[C@H](O)[C@@H](CO)O2)cc1F [5-FdU, 5-fluoro-2′-deoxyuridine] | –

SMILES | EC50 (E. faecium [1]; 1 mM Inosine, read-out: EC50) [nM] | EC50 (E. faecium [1]; [5]) [nM] | EC50 (E. faecium [1]; [6]) [nM] | EC50 (E. faecium [1]; [7]) [nM] | EC50 (E. faecium [1]; 10 mM Glycine, read-out: EC50) [nM] | EC50 (E. faecium [1]; [8]) [nM] | EC50 (E. faecium [1]; 100 mM Serine, read-out: EC50) [nM] | EC50 (E. faecium [1]; [9]) [nM] | EC50 (E. faecium [1]; 0.1 M folate, read-out: EC50) [nM] | EC50 (E. faecium [1]; [10]) [nM] | EC50 (E. coli; read-out: EC50) [nM] | EC50 (E. coli; [11]) [nM] | EC50 (E. faecalis; read-out: EC50) [nM] | EC50 (E. faecalis; [11]) [nM] | EC50 (E. faecium [2]; [12]) [nM] | EC50 (E. faecium [2]; [13]) [nM] | EC50 (S. aureus; read-out: EC50) [nM] | EC50 (S. aureus; [11]) [nM] | further results
Nc1nc2[nH]cc(CCc3ccc(C(=O)N[C@@H](CCC(=O)O)C(=O)O)cc3)c2c(=O)[nH]1 [PMX, pemetrexed] | 0.074 | 0.0794 | > 100000 | > 100000 | 0.062 | 0.0631 | 0.25 | 0.251 | 1800 | 2000 | > 100000 | > 100000 | > 100000 | > 100000 | – | – | > 100000 | > 100000 | Ki (efmSHMT [3]; Ki, Cheng-Prusoff): 117000 nM; Ki (efmSHMT [3]; pKi ± pSE): 126000 nM; EC50 (E. faecium [2]; JCM5804, E. faecium JCM5804, read-out: EC50): 0.052 nM; EC50 (E. faecium [2]; JCM5804, E. faecium JCM5804, read-out: pEC50 ± S.E. (converted)): 0.0501 nM; ΔTm (thermal stability of efmSHMT) (efmSHMT [4]): 0.9 °C
